We go through one compound from ChEMBL document CHEMBL4831549, “The Marine Neurotoxin Brevetoxin (PbTx-2) Inhibits Karenia brevis and Mammalian Thioredoxin Reductases by Targeting Different Residues” (J Nat Prod, 2021).

Assay [1] deals with T1, Thioredoxin reductase 1, cytoplasmic (Rattus norvegicus) (UniProt O89049).
T1 sequence (whole entry): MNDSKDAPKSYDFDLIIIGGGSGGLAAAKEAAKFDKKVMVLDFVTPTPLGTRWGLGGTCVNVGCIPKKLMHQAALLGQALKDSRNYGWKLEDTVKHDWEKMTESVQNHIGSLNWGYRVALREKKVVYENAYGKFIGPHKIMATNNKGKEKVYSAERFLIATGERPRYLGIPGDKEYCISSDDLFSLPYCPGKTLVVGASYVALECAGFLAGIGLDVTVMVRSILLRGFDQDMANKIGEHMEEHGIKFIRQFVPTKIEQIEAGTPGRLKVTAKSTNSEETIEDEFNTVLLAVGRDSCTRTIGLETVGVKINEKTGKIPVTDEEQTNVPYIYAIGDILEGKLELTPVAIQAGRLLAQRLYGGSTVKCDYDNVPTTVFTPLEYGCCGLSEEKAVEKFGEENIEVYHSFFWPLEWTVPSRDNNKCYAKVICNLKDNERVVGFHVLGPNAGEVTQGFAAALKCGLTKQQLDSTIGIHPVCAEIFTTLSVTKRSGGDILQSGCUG
Put plainly: Binding affinity to rat TrxR1 assessed as adduct formation at 7.2 uM by LC-MS/MS analysis.

A short description of assay [2]: Inhibition of Karenia brevis TrxR assessed as reduction in substrate reduction using H2O2 as a substrate incubated for 60 mins in the presence of NADPH followed by substrate addition measured for 15 mins by absorbance based assay.
For assay [3], the system named is Karenia brevis. Nature of the assay: Inhibition of Karenia brevis TrxR assessed as reduction in substrate reduction at 40 uM using human Trx and insulin as a substrate incubated for 60 mins in the presence of NADPH followed by substrate addition measured for 5 mins by absorbance based assay relative to control.
Assay [4] concerns Karenia brevis. Nature of the assay: Inhibition of Karenia brevis TrxRD3 assessed as reduction in substrate reduction at 40 uM using DTNB as a substrate incubated for 60 mins in the presence of NADPH followed by substrate addition measured for 5 mins by absorbance based assay relative to control.
The subject of assay [5] is Karenia brevis. Put plainly: Inhibition of Karenia brevis TrxR assessed as reduction in substrate reduction at 10 to 100 uM using H2O2 as a substrate incubated for 60 mins in the presence of NADPH followed by substrate addition measured for 15 mins by absorbance based assay relative to control. The settings on record: dose 10-100 µM.
In assay [6] the test system is Karenia brevis. Put plainly: Inhibition of Karenia brevis TrxR assessed as reduction in substrate reduction at 40 uM using DTNB as a substrate incubated for 60 mins in the presence of NADPH followed by substrate addition measured for 5 mins by absorbance based assay relative to control.
The test system of assay [7] is Karenia brevis. Put plainly: Binding affinity Karenia brevis TrxR assessed as formation at 7.2 uM by LC-MS/MS analysis.
Assay [8] relates to Karenia brevis. Put plainly: Inhibition of Karenia brevis TrxR assessed as reduction in substrate reduction at 40 uM using GSSG as a substrate incubated for 60 mins in the presence of NADPH followed by substrate addition measured for 30 mins by absorbance based assay relative to control.

Activity calls are given as the source filed them. The calls are words filed in the database; no cut-off is given here.

Regarding `C=C(C=O)C[C@@H]1C[C@H](O)[C@]2(C)O[C@@H]3C[C@@H]4O[C@@H]5C[C@]6(C)O[C@]7(C)CC[C@@H]8O[C@@H]9C[C@]%10(C)O[C@@H]%11C(C)=CC(=O)O[C@H]%11C[C@H]%10O[C@H]9C[C@@H](C)[C@H]8O[C@H]7C[C@H]6O[C@@]5(C)C/C=C\[C@H]4O[C@H]3C[C@H]2O1` [BREVETOXIN B], the outcome (in assay [1]; in the assay on Karenia brevis [7]) was Active. For the same compound, in assay [2], the IC50 turned out to be 56 µM. The inhibition in the assay on Karenia brevis [3] is 34%; with Karenia brevis [4] it was 20.7%; with Karenia brevis [5] it was 39.6%; in the assay with Karenia brevis [6], 44.7%; with Karenia brevis [8], 32.5%.

A word on the IC50: it is the concentration that inhibits the measured activity by half. By inhibition is commonly meant the percentage by which the read-out fell short of the control.
